Data as given in paper PMC5007466, “VCP recruitment to mitochondria causes mitophagy impairment and neurodegeneration in models of Huntington's disease” (Nature Communications, 2016).
Peptide text beside a SMILES is read from it. * marks the point of attachment. Cbz = O=C(OCc1ccccc1)*

Key:
[1] = tested on: HdhQ111 mouse striatal cells; assay: Mitochondria-associated LC3 II level; assay type: cell-based; conditions: VCP siRNA, 48 h
From the text: (§1) For silencing Htt and VCP in HD striatal cells, control siRNA, mouse Htt and mouse VCP siRNA were purchased from Thermo Fisher Scientific. HdhQ7 and HdhQ111 cells were transfected either with control siRNA, or Htt or VCP siRNA using TransIT-TKO Transfection Reagent (Mirus Bio, LLC), according to the manufacturer's instructions. The sequences for the siRNAs used in this study are as follows: mouse Htt, 5′-[…]-3′; Mouse VCP, 5′-GAGAGCAACCUUCGUAAG-3′; control non-targeting siRNA, 5′-TTCTCCGAACGTGTCACGT-3′.
Cells were washed with cold PBS and incubated on ice for 30 min in a lysis buffer (250 mM sucrose, 20 mM HEPES-NaOH, pH 7.5, 10 mM KCl, 1.5 mM MgCl2, 1 mM EDTA, protease inhibitor cocktail and phosphatase inhibitor cocktail). Mouse brains were minced and homogenized in the lysis buffer and then placed on ice for 30 min. Collected cells or tissue were disrupted 20 times by repeated aspiration through a 25-gauge needle, followed by a 30-gauge needle. The homogenates were spun at 800 g for 10 min at 4 °C, and the resulting supernatants were spun at 10,000 g for 20 min at 4 °C. The pellets were washed with lysis buffer and spun at 10,000 g again for 20 min at 4 °C. The final pellets were suspended in lysis buffer containing 1% Triton X-100 and were mitochondrial-rich lysate fractions. […]
(§2) Protein concentrations were determined by Bradford assay. […]

[2] = tested on: HdhQ111 / HdhQ7 mouse striatal cells; assay: Mitochondrial membrane potential (TMRM), mouse striatal cells; assay type: cell-based; conditions: HdhQ111 cells, VCP siRNA, three days
Method: (§3) Immortalized striatal cell lines HdhQ111 mutant and HdhQ7 wt cells were obtained from the CHDI Foundation. Cells were cultured in DMEM supplemented with 10% FBS, 100 μg/ml penicillin, 100 μg ml^−1 streptomycin, and 400 μg ml^−1 G418. Cells were grown at 33 °C in a 5% CO2 incubator. Cells within 14 passages were used in all experiments.
as §1
To determine mitochondrial mass in cultures, cells were stained with antibodies against Tom20 or stained with Mitotracker green. The fluorescent density of Tom20 (1:500) or mitotracker green was quantitated using NIH Image J software. To measure the membrane potential of mitochondria in cultures, cells were incubated with 0.25 μM tetra-methyl rhodamine (Invitrogen Life Science) for 20 min at 37 °C. To determine lysosomal activity, cells were incubated with Lyso-ID Red dye (Enzo Life Science) for 30 min at 37 °C. The images were visualized by microscope and quantitation of the density of red fluorescence was carried out using NIH ImageJ software. For immunocytochemistry study, at least 100 cells per group were counted and quantitated by an observer blind to experimental conditions.

[3] = tested on: HdhQ111 / HdhQ7 mouse striatal cells; assay: VCP mitochondrial level, mouse striatal cells (western blot); assay type: cell-based; conditions: HdhQ111 cells, Htt siRNA, 3 days
Method: as §3, §1
Cells were washed with cold PBS and incubated on ice for 30 min in a lysis buffer (250 mM sucrose, 20 mM HEPES-NaOH, pH 7.5, 10 mM KCl, 1.5 mM MgCl2, 1 mM EDTA, protease inhibitor cocktail and phosphatase inhibitor cocktail). Mouse brains were minced and homogenized in the lysis buffer and then placed on ice for 30 min. Collected cells or tissue were disrupted 20 times by repeated aspiration through a 25-gauge needle, followed by a 30-gauge needle. The homogenates were spun at 800 g for 10 min at 4 °C, and the resulting supernatants were spun at 10,000 g for 20 min at 4 °C. The pellets were washed with lysis buffer and spun at 10,000 g again for 20 min at 4 °C. The final pellets were suspended in lysis buffer containing 1% Triton X-100 and were mitochondrial-rich lysate fractions. The supernatant was centrifuged at 100,000 g, 4 °C, for 1 h, the pellets were suspended in lysis buffer containing 1% Triton X-100 as ER fractions. The final supernatant was cytosolic fractions. The mitochondrial proteins VDAC, the ER protein WFS1 and the cytosolic protein Enolase were used as loading controls for mitochondrial, ER and cytosolic fractions, respectively.
as §2

[4] = tested on: Htt or mtHtt protein in HdhQ7 and HdhQ111 cells; assay: Htt/mtHtt protein level (western blot); assay type: cell-based, mouse; conditions: 16 h, n = 3
Method: Protein concentrations were determined by Bradford assay. Protein was resuspended in Laemmli buffer, loaded on SDS–PAGE, and transferred onto nitrocellulose membranes. Membranes were probed with the indicated antibodies, followed by visualization with ECL. Representative blots have been cropped for presentation. Images of full-size blots are presented in Supplementary Fig. 9.
Supplementary Figure 3: Htt and mtHtt are not substrates of VCP . Left: HdhQ7 and HdhQ111 cells were treated with MG132 (10 µM for 16 hours). Protein levels of Htt were determined in the total lysates of the cells. Actin was used as a loading control. The representative blots were from three independent experiments. Right: HdhQ7 and HdhQ111 were treated with Eer I (Eeyarestatin I, 5μ M for 16 hours). Protein levels of Htt were determined. Mcl-1, a mitochondrial Bcl-2 family protein, was used as a positive control. Mcl-1 has been reported to be a substrate of VCP on mitochondria and it is degraded via the ubiquitin-proteasome system. The representative blots were from three independent […]
(1 picture or pasted object on this page, not shown here)

VCP = conditions: cited from earlier work
From the text: We next ask what specific function VCP mediates on mitochondria from HD models. VCP knock-out is lethal in mice[34].

For “5′-GAGAGCAACCUUCGUAAG-3′ [VCP siRNA, reference compound]”, the “mitochondria-associated LC3 II” value [1] was “reduced the levels of mitochondria-associated LC3 II” and the mitochondrial membrane potential [2] was “similarly promoted the MMP”.

With “5′-GGUUUAUGAACUGACUUUGTT-3′ [Htt siRNA, reference compound]” the “VCP translocation to mitochondria” value [3] was “abolished VCP translocation to mitochondria”.

For `CC1(C)C(N(O)C(=O)Nc2ccc(Cl)cc2)N(c2ccc(Cl)cc2)C(=O)N1CC(=O)N/N=C/C=C/c1ccc([N+](=O)[O-])o1` (stereo not drawn) [Eeyarestatin I], the “Htt or mtHtt protein levels” value ([4]; Eeyarestatin I 5 μM) is given as “did not affect Htt or mtHtt protein levels”, the cell death (VCP) is given as “rapidly lead to cell death” and the specificity (VCP) is given as “non-specific”.

With `CC(C)C[C@@H](C=O)NC(=O)[C@H](CC(C)C)NC(=O)[C@H](CC(C)C)NC(=O)OCc1ccccc1` [MG132] (Cbz-Leu-Leu-Leu-aldehyde) the “Htt or mtHtt protein levels” value ([4]; MG132 10 µM) was “did not affect Htt or mtHtt protein levels”.

For `c1ccc(CNc2nc(NCc3ccccc3)c3ccccc3n2)cc1` [N2,N4-dibenzylquinazoline-2,4-diamine], the cell death (VCP) is listed as “rapidly lead to cell death” and the specificity (VCP) is listed as “non-specific”.
